These are literature values, as cited in patent US20020192255A1, “Liquid emanator device to deliver self-suspending insecticide droplets” (priority 2001, published 2002).

The conditions of the data set: thermal decomposition temperature.

Structures are written as SMILES.

Turning to `C#CCC1=C(C)C(OC(=O)C2C(C=C(C)C)C2(C)C)CC1=O` (mixture of isomers) [ETOC-TG, (+)-2-methyl4-oxo-3-(2-propynyl)-2-cyclopentenyl (+)-cis/trans-chrysanthemate], the “decomposition of the chemical occurs above” value is “above 608 ° F”.
`CC1(C)[C@H](C=C(Cl)Cl)[C@H]1C(=O)OCc1c(F)c(F)cc(F)c1F` [transfluthrin]: the “decomposition of the chemical occurs above” value is “above 392 ° F”.
